Data on two compounds can be found in patent US12629392B2, “Method of treating covid-19 infection using superparamagnetic iron oxide nanoparticle” (Imam Abdulrahman Bin Faisal University, priority 2023, dated 2026).

The subject of assay [1] is A549 cells. As to the kind of experiment: Cell viability (MTT) assay, A549 cells. The assay is classed as cell-based, human. Conditions: 48 hours, two-way ANOVA with Dunnett's.
In assay [2] the test system is HEK293 cells. Description: Cell viability (MTT) assay, HEK293 cells. The assay is classed as cell-based, human. Conditions: 48 hours, two-way ANOVA with Dunnett's.
Setting [3] is: Dose 1 (0.025 mg/ml nanocomposite; 0.001125 mg/ml free Cp, Rib).
Where [4] appears, read: Dose 2 (0.05 mg/ml nanocomposite; 0.00225 mg/ml free Cp, Rib).
The mark [5] stands for this setting: Dose 3 (0.1 mg/ml nanocomposite; 0.0045 mg/ml free Cp, Rib).
Where [6] appears, read: Dose 4 (0.5 mg/ml nanocomposite; 0.0225 mg/ml free Cp, Rib).

Turning to `N.N.[Cl][Pt][Cl]` [Cp, cisplatin], the “Significant (cell viability vs no-treatment control)” value was “No” in assay [1] (setting [3]); “No” in assay [1] (setting [4]); “No” in assay [1] (setting [5]); “Yes” in assay [1] (setting [6]); “No” in assay [2] (setting [3]); “No” in assay [2] (setting [4]). Besides, the “Significant (cell viability vs no-treatment control)” value in assay [2] (setting [5]) is on record as “No”; in assay [2] (setting [6]), “Yes”.
`NC(=O)c1ncn([C@@H]2O[C@H](CO)[C@@H](O)[C@H]2O)n1` [Rib, 1-β-D-Ribofuranosyl-1,2,4-triazole-3-carboxamide]: the “Significant (cell viability vs no-treatment control)” value in assay [1] (setting [3]) is listed as “No”; in assay [1] (setting [4]), “No”; in assay [1] (setting [5]), “No”; in assay [1] (setting [6]), “Yes”; in assay [2] (setting [3]) it was “No”; in assay [2] (setting [4]) it was “No”. Besides, the “Significant (cell viability vs no-treatment control)” value in assay [2] (setting [5]) and in assay [2] (setting [6]) was “Yes” throughout.
